Reference: US9624214B2, “Amino-substituted imidazo[1,2-a]pyridinecarboxamides and their use” (BAYER PHARMA AKTIENGESELLSCHAFT, priority 2012, dated 2017)
Where a name gives a salt, the structure may show the parent alone.

What follows are compounds tested against T1, recombinant guanylate cyclase reporter cell line (Rattus norvegicus, UniProt P19686+P20595) (assay: B-2. Action on recombinant guanylate cyclase reporter cell line). Conditions: MEC = minimal effective concentration; in some cases mean values from individual determinations.
T1 construct: expressed in transfected cells
T1 sequence (P20595 1-619): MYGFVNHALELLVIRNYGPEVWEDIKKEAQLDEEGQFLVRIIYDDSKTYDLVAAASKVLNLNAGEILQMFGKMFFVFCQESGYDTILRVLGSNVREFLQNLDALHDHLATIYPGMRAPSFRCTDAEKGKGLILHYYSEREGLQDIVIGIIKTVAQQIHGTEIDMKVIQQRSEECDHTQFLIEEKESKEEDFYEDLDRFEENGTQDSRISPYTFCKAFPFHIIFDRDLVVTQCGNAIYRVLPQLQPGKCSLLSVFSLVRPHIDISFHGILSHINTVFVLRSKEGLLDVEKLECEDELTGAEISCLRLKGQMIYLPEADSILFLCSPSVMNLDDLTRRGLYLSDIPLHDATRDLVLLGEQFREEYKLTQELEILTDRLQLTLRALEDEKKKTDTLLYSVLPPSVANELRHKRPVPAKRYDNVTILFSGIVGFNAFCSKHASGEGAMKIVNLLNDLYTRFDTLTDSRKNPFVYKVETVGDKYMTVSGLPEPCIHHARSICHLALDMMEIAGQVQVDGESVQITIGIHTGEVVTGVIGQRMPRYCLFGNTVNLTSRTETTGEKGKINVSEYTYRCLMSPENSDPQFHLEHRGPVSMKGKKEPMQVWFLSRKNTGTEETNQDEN
T1 sequence (P19686 1-690): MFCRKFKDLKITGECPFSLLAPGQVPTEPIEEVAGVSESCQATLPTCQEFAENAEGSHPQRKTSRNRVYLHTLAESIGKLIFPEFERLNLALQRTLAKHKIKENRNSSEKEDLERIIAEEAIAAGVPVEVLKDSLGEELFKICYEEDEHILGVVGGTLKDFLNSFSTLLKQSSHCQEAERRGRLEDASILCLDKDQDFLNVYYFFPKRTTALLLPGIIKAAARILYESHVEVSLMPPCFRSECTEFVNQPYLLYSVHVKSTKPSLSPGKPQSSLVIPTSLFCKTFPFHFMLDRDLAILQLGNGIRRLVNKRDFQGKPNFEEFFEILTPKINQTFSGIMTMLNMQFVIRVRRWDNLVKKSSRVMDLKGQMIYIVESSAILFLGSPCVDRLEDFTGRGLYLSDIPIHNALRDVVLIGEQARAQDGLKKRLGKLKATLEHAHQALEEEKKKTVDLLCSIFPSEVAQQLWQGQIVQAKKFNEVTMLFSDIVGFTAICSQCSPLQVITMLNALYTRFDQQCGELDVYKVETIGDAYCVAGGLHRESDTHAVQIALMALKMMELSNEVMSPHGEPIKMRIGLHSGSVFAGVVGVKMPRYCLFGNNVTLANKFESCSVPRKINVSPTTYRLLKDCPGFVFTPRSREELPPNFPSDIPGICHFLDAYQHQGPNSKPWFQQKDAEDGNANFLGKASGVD
Type: cell-based
In short: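 MEC values, meaning the lowest concentration producing a detectable response, were taken from a recombinant cyclase reporter cell assay. Where repeated, individual determinations were averaged.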

MEC	SMILES
0.10 µM	Cc1nc2c(OCc3c(F)cccc3F)cc(Cl)cn2c1C(=O)NCCN1CCC(F)(F)CC1 [Example 151, 6-chloro-8-[(2,6-difluorobenzyl)oxy]-N-[2-(4,4-difluoropiperidin-1-yl)ethyl]-2-methylimidazo[1,2-a]pyridine-3-carboxamide]
1.00 µM	Cc1nc2c(OCc3c(F)cccc3F)cc(Cl)cn2c1C(=O)NCCN1CCN(C(C)C)CC1 [Example 152, 6-chloro-8-[(2,6-difluorobenzyl)oxy]-N-[2-(4-isopropylpiperazin-1-yl)ethyl]-2-methyl-imidazo[1,2-a]pyridine-3-carboxamide]
1.00 µM	COCCNCCNC(=O)c1c(C)nc2c(OCc3c(F)cccc3F)cc(Cl)cn12 [Example 153, 6-chloro-8-[(2,6-difluorobenzyl)oxy]-N-{2-[(2-methoxyethyl)amino]ethyl}-2-methylimidazo[1,2-a]pyridine-3-carboxamide]
1.00 µM	Cc1nc2c(OCc3c(F)cccc3F)cc(Cl)cn2c1C(=O)NCCN1CCN(C)CC1 [Example 154, 6-chloro-8-[(2,6-difluorobenzyl)oxy]-2-methyl-N-[2-(4-methylpiperazin-1-yl)ethyl]imidazo[1,2-a]pyridine-3-carboxamide]
0.30 µM	Cc1nc2c(OCc3c(F)cccc3F)cc(Cl)cn2c1C(=O)NCC1(N)CCC1 [Example 155, N-[(1-aminocyclobutyl)methyl]-6-chloro-8-[(2,6-difluorobenzyl)oxy]-2-methylimidazo[1,2-a]-pyridine-3-carboxamide trifluoroacetate]
3.00 µM	Cc1nc2c(OCc3c(F)cccc3F)cc(Cl)cn2c1C(=O)NCCN1CC(N2CCCC2)C1 [Example 156, 6-chloro-8-[(2,6-difluorobenzyl)oxy]-2-methyl-N-{2-[3-(pyrrolidin-1-yl)azetidin-1-yl]ethyl}-imidazo[1,2-a]pyridine-3-carboxamide]
0.30 µM	Cc1nc2c(OCc3c(F)cccc3F)cc(Cl)cn2c1C(=O)NCCN1C[C@@H](C)O[C@@H](C)C1 [Example 158, 6-chloro-8-[(2,6-difluorobenzyl)oxy]-N-{2-[(2R,6S)-2,6-dimethylmorpholin-4-yl]ethyl}-2-methylimidazo[1,2-a]pyridine-3-carboxamide]
1.00 µM	Cc1cc(OCc2c(F)cccc2F)c2nc(C)c(C(=O)NC3CCCC(N)C3)n2c1 (centres unmarked) [Example 160, N-(3-aminocyclohexyl)-8-[(2,6-difluorobenzyl)oxy]-2,6-dimethylimidazo[1,2-a]-pyridine-3-carboxamide]

The remaining lines, values behind:

SMILES	MEC
Cc1nc2c(OCc3c(F)cccc3F)cccn2c1C(=O)NC(C)[C@H](C)N (stereo partly drawn) [Example 120, N-[(3S)-3-Aminobutan-2-yl]-8-[(2,6-difluorobenzyl)oxy]-2-methylimidazo[1,2-a]pyridine-3-carboxamide]	0.30 µM
Cc1nc2c(OCc3c(F)cccc3F)cccn2c1C(=O)NC(C)[C@@H](C)N (stereo partly drawn) [Example 121, N-[(3R)-3-Aminobutan-2-yl]-8-[(2,6-difluorobenzyl)oxy]-2-methylimidazo[1,2-a]pyridine-3-carboxamide]	0.30 µM
Cc1nc2c(OCc3c(F)cccc3F)cccn2c1C(=O)NC(CN)COc1ccc(F)c(F)c1 (stereo not drawn) [Example 124, ent-N-[1-Amino-3-(3,4-difluorophenoxy)propan-2-yl]-8-[(2,6-difluorobenzyl)oxy]-2-methylimidazo[1,2-a]pyridine-3-carboxamide Ditrifluoroacetate]	1.00 µM
Cc1nc2c(OCc3c(F)cccc3F)cccn2c1C(=O)NCCNC(C)C [Example 130, 8-[(2,6-difluorobenzyl)oxy]-N-[2-(isopropylamino)ethyl]-2-methylimidazo[1,2-a]-pyridine-3-carboxamide]	1.00 µM
Cc1nc2c(OCc3c(F)cccc3F)cccn2c1C(=O)NCCN1CCS(=O)(=O)CC1 [Example 131, 8-[(2,6-difluorobenzyl)oxy]-N-[2-(1,1-dioxidothiomorpholin-4-yl)ethyl]-2-methylimidazo[1,2-a]pyridine-3-carboxamide]	3.00 µM
Cc1nc2c(OCc3c(F)cccc3F)cccn2c1C(=O)NCCN1CCN(C)CC1 [Example 133, 8-[(2,6-difluorobenzyl)oxy]-2-methyl-N-[2-(4-methylpiperazin-1-yl)ethyl]imidazo[1,2-a]-pyridine-3-carboxamide]	3.00 µM
Cc1cc(OCc2c(F)cccc2F)c2nc(C)c(C(=O)NCCN3CCOCC3)n2c1 [Example 136, 8-[(2,6-difluorobenzyl)oxy]-2,6-dimethyl-N-[2-(morpholin-4-yl)ethyl]imidazo[1,2-a]pyridine-3-carboxamide]	0.10 µM
Cc1cc(OCc2c(F)cccc2F)c2nc(C)c(C(=O)NCCN3CCN(C)CC3)n2c1 [Example 137, 8-[(2,6-difluorobenzyl)oxy]-2,6-dimethyl-N-[2-(4-methylpiperazin-1-yl)ethyl]imidazo[1,2-a]-pyridine-3-carboxamide]	1.00 µM
Cc1cc(OCc2c(F)cccc2F)c2nc(C)c(C(=O)NCCN3CCN(C(C)C)CC3)n2c1 [Example 139, 8-[(2,6-difIuorobenzyl)oxy]-N-[2-(4-isopropylpiperazin-1-yl)ethyl]-2,6-dimethylimidazo[1,2-a]pyridine-3-carboxamide]	1.00 µM
Cc1nc2c(OCc3c(F)cccc3F)cc(F)cn2c1C(=O)NCC(C)(C)N [Example 140, N-(2-Amino-2-methylpropyl)-8-[(2,6-difluorobenzyl)oxy]-6-fluoro-2-methylimidazo[1,2-a]-pyridine-3-carboxamide]	1.00 µM
Cc1nc2c(OCc3c(F)cccc3F)cccn2c1C(=O)NC(C)(C)C(C)(C)N [Example 141, N-(3-Amino-2,3-dimethylbutan-2-yl)-8-[(2,6-difluorobenzyl)oxy]-2-methylimidazo[1,2-a]pyridine-3-carboxamide]	3.00 µM
Cc1nc2c(OCc3c(F)cccc3F)cccn2c1C(=O)NCCN1CCC(F)(F)C1 [Example 143, 8-[(2,6-difluorobenzyl)oxy]-N-[2-(3,3-difluoropyrrolidin-l-yl)ethyl]-2-methylimidazo[1,2-a]pyridine-3-carboxamide]	0.30 µM
COCCNCCNC(=O)c1c(C)nc2c(OCc3c(F)cccc3F)cccn12 [Example 144, 8-[(2,6-difluorobenzyl)oxy]-N-{2-[(2-methoxyethyl)amino]ethyl}-2-methylimidazo[1,2-a]pyridine-3-carboxamide]	3.00 µM
Cc1nc2c(OCc3c(F)cccc3F)cccn2c1C(=O)NCC(C)(C)N(C)C [Example 145, 8-[(2,6-difluorobenzyl)oxy]-N-[2-(dimethylamino)-2-methylpropyl]-2-methylimidazo[1,2-a]pyridine-3-carboxamide]	3.00 µM
Cc1nc2c(OCc3c(F)cccc3F)cccn2c1C(=O)NCCN(CC(F)F)C1CC1 [Example 146, N-{2-[cyclopropyl(2,2-difluoroethyl)amino]ethyl}-8-[(2,6-difluorobenzyl)oxy]-2-methylimidazo[1,2-a]-pyridine-3-carboxamide]	1.00 µM
Cc1nc2c(OCc3c(F)cccc3F)cc(Cl)cn2c1C(=O)NCC(C)(C)N1CCCC1 [Example 148, 6-chloro-8-[(2,6-difluorobenzyl)oxy]-2-methyl-N-[2-methyl-2-(pyrrolidin-1-yl)-propyl]imidazo[1,2-a)pyridine-3-carboxamide]	1.00 µM
Cc1nc2c(OCc3c(F)cccc3F)cc(Cl)cn2c1C(=O)NCCNC(C)C [Example 149, 6-chloro-8-[(2,6-difluorobenzyl)oxy]-N-[2-(isopropylamino)ethyl]-2-methylimidazo[1,2-a]-pyridine-3-carboxamide]	1.00 µM
Cc1nc2c(OCc3c(F)cccc3F)cc(Cl)cn2c1C(=O)NCCN(CC(F)F)C1CC1 [Example 150, 6-chloro-N-{2-[cyclopropyl(2,2-difluoroethyl)-amino]ethyl}-8-[(2,6-difluorobenzyl)oxy]-2-methylimidazo[1,2-a]pyridine-3-carboxamide]	0.10 µM
